Experimental data taken from BindingDB's records for doi:10.1016/j.bmcl.2008.11.105 (Pfizer, 2009).

Molecular target: T1, Protein kinase C zeta type (Homo sapiens, UniProt Q05513)
T1 sequence (Q05513 whole entry): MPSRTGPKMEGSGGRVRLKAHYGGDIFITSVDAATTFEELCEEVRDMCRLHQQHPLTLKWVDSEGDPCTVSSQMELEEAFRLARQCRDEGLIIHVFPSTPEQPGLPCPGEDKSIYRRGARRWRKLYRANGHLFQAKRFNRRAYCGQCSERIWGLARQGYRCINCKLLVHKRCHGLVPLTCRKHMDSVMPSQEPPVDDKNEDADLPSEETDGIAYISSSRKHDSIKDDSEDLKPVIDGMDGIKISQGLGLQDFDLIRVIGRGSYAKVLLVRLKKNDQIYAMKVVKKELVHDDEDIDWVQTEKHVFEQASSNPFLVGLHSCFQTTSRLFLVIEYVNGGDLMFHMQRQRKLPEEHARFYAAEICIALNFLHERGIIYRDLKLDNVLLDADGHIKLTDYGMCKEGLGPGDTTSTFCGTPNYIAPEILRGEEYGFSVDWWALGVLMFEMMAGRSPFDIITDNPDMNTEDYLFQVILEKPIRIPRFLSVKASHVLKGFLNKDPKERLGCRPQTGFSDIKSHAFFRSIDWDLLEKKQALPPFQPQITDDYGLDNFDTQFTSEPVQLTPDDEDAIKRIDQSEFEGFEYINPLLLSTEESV
Assay: PKC Enzyme Assay
Details: pH 7.5; 23 °C
Method: Protein kinase C (PKC), zeta activity was measured by following the phosphorylation of a biotinylated peptide substrate in the presence of ATP using AlphaScreen technology (Perkin Elmer, Waltham, MA). The AlphaScreen assay format relies on bringing a streptavidin coated donor bead and an IgG-protein A acceptor bead into proximity through the interaction between biotinylated phosphorylated peptide and a phospho-specific antibody to the peptide. Upon excitation of the donor bead at 680 nm, excited state singlet oxygen is produced and diffuses to acceptor beads in close proximity (200 nm), activating a cascade of fluorophores resulting in emission between 520-620 nm. Kinase activity is quantified through the evaluation of this emission signal. Compounds are evaluated as potential inhibitors of the PKC kinase activity by measuring their effects on the phosphorylation of the peptide substrate. IC50 value determinations were made for potential inhibitors by testing compounds at 12 concentrations in three-fold serial dilutions with each concentration tested in triplicate. Reactions were carried out for 60 minutes at room temperature. Reactions were then quenched by addition of stop solution. […] Plates were then read on a Fusion reader after an overnight equilibrium at room temperature.

SMILES | IC50
CN1CCN(c2cccc3[nH]c(-c4n[nH]c5cc(-c6ccc7ncccc7c6)ccc45)nc23)CC1 [indazole-benzimidazole, 23] | 6.84 µM
CN1CCN(c2cccc3[nH]c(-c4n[nH]c5cc(-c6ccc7ccoc7c6)ccc45)nc23)CC1 [indazole-benzimidazole, 25] | 3.02 µM
